Measured values published in patent US7112698B2, “4-(c2-6alkoxy)-substituted chalcones as therapeutic agents” (Spear Therapeutics Limited, priority 2001, dated 2006).
Read-outs that look alike come from different tables or passages of the source.

What was measured:
MCF-7 cells = assay: MCF-7 cell line (non-induced) cytotoxicity assay, MTT; assay type: cell-based; conditions: Homo sapiens, MCF7
Excerpt: (§1) CYP1A1 and CYP1B1 enzyme activity is induced by TCDD (tetrachlorodibenzodioxin (Dioxin)) in breast tumour MCF-7 cells (see, e.g., Sutter et al., 1994). CYP1B1 is expressed in a variety of human tumours, and can be inducible by TCDD in numerous cell types including breast, liver, lung, and kidney (see, e.g., Murray et al., 1997). CYP1B1 is known to catalyse estradiol 4-hydroxylation metabolism. In untreated culture, the constitutive rate of estradiol E2 metabolism in MCF-7 cells is minimal. However, treatment with TCDD causes a marked increase in the rate of E2 metabolism (see, e.g., Spink et al., 1994). […] Therefore the cytotoxicity of compounds in non-induced MCF-7 cells correlates to the cytotoxicity of compounds against normal cells, whilst the cytotoxicity of compounds against TCDD-induced MCF-7 cells correlates to the cytotoxicity of compounds against real tumours that express CYP1B1.
(§2) The cytotoxicity of compounds in non-induced MCF-7 cells correlates to the cytotoxicity of compounds against normal cells, whilst the cytotoxicity of compounds against TCDD-induced MCF-7 cells correlates to the cytotoxicity of compounds against real tumours that express CYP1B1.
(§3) Cells were maintained in RPMI 1640 with Glutamax 1 (Life Technologies) with 10% (v/v) heat inactivated foetal calf serum (Hybrimax. Sigma), at 37° C., 5% CO2/95% air with 100% humidity and passaged using trypsin/EDTA. 1×10^3 cells were plated out in 100 μl medium per well of 96-well flat-bottomed plates (Fisher). After 4 hours to allow adherance, 100 μl of medium containing TCDD (British Greyhound Chromatography; 10 μM stock in DMSO (dimethylsulfoxide)) or medium with 0.2% (v/v) DMSO as control was added to each well to give a final concentration of 10 nM TCDD, 0.1% (v/v) DMSO, for 24 hours to allow maximal CYP expression. The medium was then carefully aspirated and 100 μl fresh medium added. Within 30 minutes test compound was added in quadruplicate in 100 μl medium (with or without inhibitors) at double the final concentration from 100 mM stock in DMSO to give a final concentration of not more than 0.1% (v/v) DMSO, or DMSO solvent alone at 0.1% (v/v) as control. The cells were then allowed to grow on for 96 hours to give 80–90% confluence in the control wells. 50 μl MTT (Thiazol blue, Sigma) at 2 mg/ml in Dulbecco's phosphate buffered saline-A, was then added to each well for 3 hours. All medium was aspirated, then the formazan product generated by viable cells was solubilized with 150 μl DMSO. Plates were vortexed and the absorbance at 540 nm determined using a plate reader. Results were expressed as the percentage of 100% (control) proliferation and the IC50 calculated using the line of best fit for a sigmoidal dose response curve with variable slope using Graphpad Prizm software. All determinations were carried out in at least triplicate.

TCDD-induced MCF-7 cells = assay: TCDD-induced MCF-7 cell line cytotoxicity assay, MTT; assay type: cell-based, human; conditions: for IC50: Homo sapiens, MCF7, MCF-7 cells induced with 10 nM TCDD for 24 hours, 96 hours, MTT; for Tumour Selectivity Differential Factor: MCF-7 IC50 versus TCDD-induced MCF-7 IC50 (Table 1); for more toxic to “tumour” cells than to “normal” cells: TCDD-induced MCF-7 versus MCF-7
Excerpt: as §1, §2
as §3, with “triplicate. […]” for “triplicate.”

[1] = system: MDA-468 advanced breast cancer cell line; assay: MDA-468 tumour cell line cytotoxicity assay; assay type: cell-based, human; conditions: for IC50: Homo sapiens, without TCDD; for Tumour Selectivity Differential Factor: IC50 MCF-10A divided by IC50 MDA-468 (Table 2)
Protocol: (§4) Cells were maintained in RPMI 1640 with Glutamax 1 (Life Technologies) with 10% (v/v) heat inactivated foetal calf serum (Hybrimax. Sigma), at 37° C., 5% CO2/95% air with 100% humidity and passaged using trypsin/EDTA. 1×10^3 cells were plated out in 100 μl medium per well of 96-well flat-bottomed plates (Fisher). […] The medium was then carefully aspirated and 100 μl fresh medium added. […] 50 μl MTT (Thiazol blue, Sigma) at 2 mg/ml in Dulbecco's phosphate buffered saline-A, was then added to each well for 3 hours. All medium was aspirated, then the formazan product generated by viable cells was solubilized with 150 μl DMSO. Plates were vortexed and the absorbance at 540 nm determined using a plate reader. […] All determinations were carried out in at least triplicate.
(§5) This cell culture based assay is performed using the two cell lines MDA-468 and MCF-10A. The MDA468 cell line is an advanced breast cancer cell line, whilst the MCF-10A cell line is a normal breast cell line.
(§6) This assay was performed using the two cell lines MDA-468 and MCF-10A according to the procedure described above for the MCF-7 assay, but without the addition of TCDD.
(§7) The tumour selectivity differential factor (TSDF) is calculated by dividing the IC50 obtained from the MCF-10A data by the IC50 obtained from the MDA-468 data.

[2] = system: MCF-10A normal breast cell line; assay: MCF-10A normal cell line cytotoxicity assay; assay type: cell-based; conditions: Homo sapiens, without TCDD
Protocol: as §4, §5, §6, §7

[3] = non-induced MCF-7 cells, 96 hours, MTT, read-out: MCF-7 Cells IC50
[4] = prodrug / hydroxylated metabolite illustration, read-out: IC50 in breast cancer MCF-7 cells

Compound	IC50 (MCF-7 cells; [3]) [nM]	IC50 (TCDD-induced MCF-7 cells) [nM]	Tumour Selectivity Differential Factor (TCDD-induced MCF-7 cells)	further results
CCCCOc1ccc(/C=C/C(=O)c2cc(OC)c(OC)c(OC)c2)cc1 [DMU-192, (E)-1-(4-butoxyphenyl)-3-(3,4,5-trimethoxyphenyl)prop-1-en-3-one]	20000	1600	12	–
CCCOc1ccc(/C=C/C(=O)c2cc(OC)cc(OC)c2)cc1O [DMU-185, (E)-1-(3-hydroxy-4-propoxyphenyl)-3-(3,5-dimethoxyphenyl)prop-1-en-3-one]	8000	660	12	–
COc1cccc2c1C(=O)c1c(O)c3c(c(O)c1C2=O)C[C@@](O)(C(=O)CO)C[C@@H]3O[C@H]1C[C@H](N)[C@H](O)[C@H](C)O1 [Doxorubicin, doxorubicin]	–	–	–	IC50 [1]: 3 nM; Tumour Selectivity Differential Factor [1]: 0.1; more toxic to normal cells than to cancer cells ([1]; MCF-10A versus MDA-468): 10 fold; IC50 [2]: 0.3 nM
CCCCOc1ccc(/C=C/C(=O)c2cc(OC)c(OC)c(OC)c2)cc1O [DMU-189, (E)-1-(3-hydroxy-4-butoxyphenyl)-3-(3,4,5-trimethoxyphenyl)prop-1-en-3-one]	8300	2500	3	–
CCOc1ccc(/C=C/C(=O)c2cc(OC)c(OC)c(OC)c2)cc1 [DMU-190, (E)-1-(4-ethoxyphenyl)-3-(3,4,5-trimethoxyphenyl)prop-1-en-3-one]	750	390	2	–
COc1cc(OC)cc(C(=O)/C=C/c2ccc(OC(C)(C)C)cc2)c1 [DMU-402, (E)-1-(4-tertbutoxyphenyl)-3-(3,5-dimethoxyphenyl)prop-1-en-3-one, reference compound]	6200	6200	1	–
CCCOc1ccc(/C=C/C(=O)c2cc(OC)c(OC)c(OC)c2)cc1 [DMU-191, (E)-1-(4-propoxyphenyl)-3-(3,4,5-trimethoxyphenyl)prop-1-en-3-one]	10000	420	24	more toxic to “tumour” cells than to “normal” cells (TCDD-induced MCF-7 cells): 24 fold
CCOc1ccc(/C=C/C(=O)c2cc(OC)cc(OC)c2)cc1 [DMU-174, (E)-1-(4-ethoxyphenyl)-3-(3,5-dimethoxyphenyl)prop-1-en-3-one]	2000	600	3	–
COc1cc(OC)cc(C(=O)/C=C/c2ccc(OC)c(O)c2)c1 [(E)-1-(3-Hydroxy-4-methoxyphenyl)-3-(3,5-dimethoxyphenyl)prop-1-en-3-one, reference compound]	–	–	–	IC50 (MCF-7 cells; [4]): 0.65 nM
CCCCOc1ccc(/C=C/C(=O)c2cc(OC)cc(OC)c2)cc1 [DMU-176, (E)-1-(4-butoxyphenyl)-3-(3,5-dimethoxyphenyl)prop-1-en-3-one]	20000	1100	18	–
CCCOc1ccc(/C=C/C(=O)c2cc(OC)ccc2OC)cc1 [DMU-424, (E)-1-(4-propoxyphenyl)-3-(2,5-dimethoxyphenyl)prop-1-en-3-one]	12000	2000	6	–
CCCOc1ccc(/C=C/C(=O)c2ccc(OC)cc2OC)cc1 [DMU-408, (E)-1-(4-propoxyphenyl)-3-(2,4-dimethoxyphenyl)prop-1-en-3-one]	10000	1300	8	–
COc1ccc(/C=C/C(=O)c2cc(OC)cc(OC)c2)cc1 [(E)-1-(4-methoxyphenyl)-3-(3,5-dimethoxyphenyl)prop-1-en-3-one, reference compound]	–	–	–	IC50 (MCF-7 cells; [4]): 690 nM
CCCOc1ccc(/C=C(\C)C(=O)c2cc(OC)cc(OC)c2)cc1 [DMU-432, (E)-1-(4-propoxyphenyl)-2-methyl-3-(3,5-dimethoxyphenyl)prop-1-en-3-one]	700	80	9	–
CN(Cc1cnc2nc(N)nc(N)c2n1)c1ccc(C(=O)N[C@@H](CCC(=O)O)C(=O)O)cc1 [Methotrexate, methotrexate]	–	–	–	IC50 [1]: 40 nM; Tumour Selectivity Differential Factor [1]: 1.5; IC50 [2]: 60 nM
CCCOc1ccc(/C=C/C(=O)c2ccc(OC)c(OC)c2OC)cc1 [DMU-420, (E)-1-(4-propoxyphenyl)-3-(2,3,4-trimethoxyphenyl)prop-1-en-3-one]	20000	3700	5	–
CCCOc1ccc(/C=C/C(=O)c2cc(OC)c(OC)c(OC)c2)cc1O [DMU-188, (E)-1-(3-hydroxy4-propoxyphenyl)-3-(3,4,5-trimethoxyphenyl)prop-1-en-3-one]	4500	600	8	–
CCCOc1ccc(/C=C/C(=O)c2cccc(OC)c2)cc1 [DMU-417, (E)-1-(4-propoxyphenyl)-3-(3-methoxyphenyl)prop-1-en-3-one]	28000	10000	3	–
CCCCOc1ccc(/C=C/C(=O)c2cc(OC)cc(OC)c2)cc1O [DMU-186, (E)-1-(3-hydroxy-4-butoxyphenyl)-3-(3,5-dimethoxyphenyl)prop-1-en-3-one]	30000	650	46	more toxic to “tumour” cells than to “normal” cells (TCDD-induced MCF-7 cells): 46 fold
COc1cc(OC)cc(C(=O)/C=C/c2ccc(OC(C)C)cc2)c1 [DMU-401, (E)-1-(4-isopropoxyphenyl)-3-(3,5-dimethoxyphenyl)prop-1-en-3-one]	6800	800	9	–
